Assay results taken from ChEMBL document CHEMBL1201862, “PubChem BioAssay data set” (2004).
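Results reflect a 48-hour exposure of cells in 96-well plates to compound at five concentrations. GI50 is the concentration that inhibits growth by half.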 Activity calls are given as the source filed them. Rule as the data show it: active = GI50 up to about 1.1 µM and inactive = higher.

Key:
Test in all cases: NCI anticancer screen, dose series, 48 h
RPMI-8226 = test system: RPMI-8226
UACC-257 = test system: UACC-257
UO-31 = test system: UO-31
SN12C = test system: SN12C
MDA-MB-435 = test system: MDA-MB-435
SK-OV-3 = test system: SK-OV-3
HT-29 = test system: HT-29
SK-MEL-2 = test system: SK-MEL-2
NCI/ADR-RES = test system: NCI/ADR-RES
EKVX = test system: EKVX
SF-268 = test system: SF-268
HOP-92 = test system: HOP-92
IGROV-1 = test system: IGROV-1
PC-3 = test system: PC-3
SR = test system: SR
OVCAR-3 = test system: OVCAR-3
OVCAR-5 = test system: OVCAR-5
M14 = test system: M14
ACHN = test system: ACHN
UACC-62 = test system: UACC-62

COc1ccc(CSC2=C(C#N)C(=O)NC3(CCCCC3)S2)cc1
GI50 (RPMI-8226): > 56.6 µM (inactive) | GI50 (UACC-257): > 81.7 µM (inactive) | GI50 (UO-31): 96.4 µM (inactive) | GI50 (SN12C): 65.2 µM (inactive) | GI50 (MDA-MB-435): 19 µM (inactive) | GI50 (SK-OV-3): 44.7 µM (inactive) | GI50 (HT-29): 38.1 µM (inactive) | GI50 (SK-MEL-2): 38.6 µM (inactive) | GI50 (NCI/ADR-RES): 49.7 µM (inactive) | GI50 (EKVX): 54 µM (inactive) | GI50 (SF-268): 47.1 µM (inactive) | GI50 (HOP-92): > 55.7 µM (inactive) | GI50 (IGROV-1): > 69.7 µM (inactive) | GI50 (PC-3): 74.8 µM (inactive) | GI50 (SR): 71.3 µM (inactive) | GI50 (OVCAR-3): 35.2 µM (inactive) | GI50 (OVCAR-5): > 100 µM (inactive) | GI50 (M14): 42.2 µM (inactive) | GI50 (ACHN): > 93.5 µM (inactive) | GI50 (UACC-62): 61.4 µM (inactive)

C[N+]1(C(CO)Cc2c[nH]c3ccccc23)Cc2ccccc2C1 (stereo not given)
GI50 (RPMI-8226): 76.6 µM (inactive) | GI50 (UACC-257): 44 µM (inactive) | GI50 (UO-31): > 100 µM (inactive) | GI50 (SN12C): > 100 µM (inactive) | GI50 (MDA-MB-435): > 100 µM (inactive) | GI50 (SK-OV-3): > 100 µM (inactive) | GI50 (HT-29): 92.3 µM (inactive) | GI50 (SK-MEL-2): > 100 µM (inactive) | GI50 (NCI/ADR-RES): > 100 µM (inactive) | GI50 (EKVX): 62.4 µM (inactive) | GI50 (SF-268): > 100 µM (inactive) | GI50 (HOP-92): 92.5 µM (inactive) | GI50 (IGROV-1): > 100 µM (inactive) | GI50 (PC-3): > 100 µM (inactive) | GI50 (SR): > 100 µM (inactive) | GI50 (OVCAR-3): > 100 µM (inactive) | GI50 (OVCAR-5): 89.3 µM (inactive) | GI50 (M14): 35.8 µM (inactive) | GI50 (ACHN): > 100 µM (inactive) | GI50 (UACC-62): > 100 µM (inactive)

CC(C)Cc1c(C#N)c(C#N)c(N)n1Cc1ccccc1
GI50 (RPMI-8226): > 100 µM (inactive) | GI50 (UACC-257): > 100 µM (inactive) | GI50 (UO-31): > 100 µM (inactive) | GI50 (SN12C): > 100 µM (inactive) | GI50 (MDA-MB-435): > 100 µM (inactive) | GI50 (SK-OV-3): > 100 µM (inactive) | GI50 (HT-29): > 100 µM (inactive) | GI50 (SK-MEL-2): > 100 µM (inactive) | GI50 (NCI/ADR-RES): > 100 µM (inactive) | GI50 (EKVX): > 100 µM (inactive) | GI50 (SF-268): > 100 µM (inactive) | GI50 (HOP-92): > 100 µM (inactive) | GI50 (IGROV-1): > 100 µM (inactive) | GI50 (PC-3): > 100 µM (inactive) | GI50 (SR): > 100 µM (inactive) | GI50 (OVCAR-3): > 100 µM (inactive) | GI50 (OVCAR-5): > 100 µM (inactive) | GI50 (M14): > 100 µM (inactive) | GI50 (ACHN): 82.4 µM (inactive) | GI50 (UACC-62): 55.5 µM (inactive)

CC(C)CC(=O)NC(Nc1ccc(S(=O)(=O)Nc2ncccn2)cc1)(C(F)(F)F)C(F)(F)F
GI50 (RPMI-8226): > 100 µM (inactive) | GI50 (UACC-257): > 100 µM (inactive) | GI50 (UO-31): > 100 µM (inactive) | GI50 (SN12C): > 100 µM (inactive) | GI50 (MDA-MB-435): > 100 µM (inactive) | GI50 (SK-OV-3): > 100 µM (inactive) | GI50 (HT-29): > 100 µM (inactive) | GI50 (SK-MEL-2): > 100 µM (inactive) | GI50 (NCI/ADR-RES): > 100 µM (inactive) | GI50 (EKVX): > 100 µM (inactive) | GI50 (SF-268): > 100 µM (inactive) | GI50 (HOP-92): > 100 µM (inactive) | GI50 (IGROV-1): > 100 µM (inactive) | GI50 (PC-3): > 100 µM (inactive) | GI50 (SR): > 100 µM (inactive) | GI50 (OVCAR-3): > 100 µM (inactive) | GI50 (OVCAR-5): > 100 µM (inactive) | GI50 (M14): > 100 µM (inactive) | GI50 (ACHN): > 100 µM (inactive) | GI50 (UACC-62): > 100 µM (inactive)

COC1(OC)C[C@H](C)[C@@]23O[C@]24C2=CC(=O)C=CC2=N[C@H]3C#C/C=C\C#C[C@]14O
GI50 (RPMI-8226): 0.123 µM (active) | GI50 (UACC-257): 1.49 µM (inactive) | GI50 (UO-31): 0.355 µM (active) | GI50 (SN12C): 0.973 µM (active) | GI50 (MDA-MB-435): 0.546 µM (active) | GI50 (SK-OV-3): 1.36 µM (inactive) | GI50 (HT-29): 0.266 µM (active) | GI50 (SK-MEL-2): 1.66 µM (inactive) | GI50 (NCI/ADR-RES): 1.59 µM (inactive) | GI50 (EKVX): 0.578 µM (active) | GI50 (SF-268): 0.711 µM (active) | GI50 (HOP-92): 0.532 µM (active) | GI50 (IGROV-1): 0.724 µM (active) | GI50 (PC-3): 0.753 µM (active) | GI50 (SR): 0.032 µM (active) | GI50 (OVCAR-3): 0.431 µM (active) | GI50 (OVCAR-5): 0.39 µM (active) | GI50 (M14): 0.53 µM (active) | GI50 (ACHN): 0.259 µM (active) | GI50 (UACC-62): 1.19 µM (inactive)

C[C@]12CC[C@H]3[C@@H](CCC4=C(Br)C(=O)C=C[C@@]43O)[C@@H]1CCC2=O
GI50 (RPMI-8226): 33.7 µM (inactive) | GI50 (UACC-257): 16.9 µM (inactive) | GI50 (UO-31): 42.2 µM (inactive) | GI50 (SN12C): 33.7 µM (inactive) | GI50 (MDA-MB-435): 33.7 µM (inactive) | GI50 (SK-OV-3): > 100 µM (inactive) | GI50 (HT-29): 36 µM (inactive) | GI50 (SK-MEL-2): 40.9 µM (inactive) | GI50 (NCI/ADR-RES): 27.2 µM (inactive) | GI50 (EKVX): 61.2 µM (inactive) | GI50 (SF-268): 45.7 µM (inactive) | GI50 (HOP-92): 32.2 µM (inactive) | GI50 (IGROV-1): 36 µM (inactive) | GI50 (PC-3): 37.8 µM (inactive) | GI50 (SR): 8.34 µM (inactive) | GI50 (OVCAR-3): 45.4 µM (inactive) | GI50 (OVCAR-5): 61 µM (inactive) | GI50 (M14): 39.3 µM (inactive) | GI50 (ACHN): 40.6 µM (inactive) | GI50 (UACC-62): 32.4 µM (inactive)
